The assay has as its target McpN (PA2788) chemoreceptor (Pseudomonas aeruginosa, UniProt Q9I055). The assay is described as follows: biochemical.

Our source for the Kd values is paper PMC6381276 (mBio, 2019).

Sequence of McpN (PA2788) chemoreceptor (Q9I055 44-179): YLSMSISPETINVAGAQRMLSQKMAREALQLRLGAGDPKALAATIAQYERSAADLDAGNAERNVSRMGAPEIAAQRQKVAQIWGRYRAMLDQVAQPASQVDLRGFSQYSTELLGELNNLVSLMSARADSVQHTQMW

Take `O=[N+]([O-])O` [nitrate]: the Kd – broadly, the free concentration of one partner at which half of the binding sites on the other are occupied at equilibrium, for simple one-to-one binding – came to 47 ± 8 µM.
